Experimental data from article PMC10590383, “Repurposing conformational changes in ANL superfamily enzymes to rapidly generate biosensors for organic and amino acids” (Nature Communications, 2023).

Legend:
GECFINDER-Phe3.1 = biological target: T1, GECFINDER-Phe3.1 (Aneurinibacillus migulanus, UniProt P0C061, F234I); experiment: Fluorescence dose-response of purified affinity-lowered […]-Phe3 mutants with phenylalanine, 100 mM Tris pH 7.5, room temperature, 1 mM ATP, 2.5 mM MgCl2.; type: biochemical
T1 construct: gene grsA
From the text: (§1) Generally, industrial amino acid-producing strains produce phenylalanine at the grams per liter level, which greatly exceeds the dynamic range of […]-Phe3. Thus, we had to re-engineer the affinity of […]-Phe3 without affecting its ligand specificity, for phenylalanine to enable the screening of industrial phenylalanine-producing strains First, we performed virtual alanine scanning on the amino acid residues near the substrate pocket of […]-Phe3 using Discovery Studio 2019. […] Subsequently, we performed virtual saturation mutations on the F234 site (Supplementary Fig. 8b) and selected F234I, which has a medium mutation energy value ranking, for experimental verification. […] To further reduce the affinity of the F234I mutant ([…]-Phe3.1) for phenylalanine, a site-saturation library of A301 based on […]-Phe3.1 was created and screened. […] The substrate specificity and thermal stability of […]-Phe3.2 were evaluated.
(§2) Fig. 5 […] applies for FADS sorting. a Dose–response curves of purified […]-Phe3, 3.1 and 3.2 with increasing concentrations of phenylalanine. b Phenylalanine biosynthesis pathway in C. glutamicum. Dotted and dashed lines represented feedback inhibition and repression, respectively. Two target genes were highlighted in red. […] RBS strength was determined using a GFP reporter system. Scale bar represented GFP fluorescence normalized with OD600 nm. […]

GECFINDER-Phe3.2 = biological target: T2, GECFINDER-Phe3.2 (Aneurinibacillus migulanus, UniProt P0C061, A301E/F234I); experiment: as above; type: biochemical
T2 construct: gene grsA
From the text: as §1, §2

T1 sequence (P0C061 1-617 F234I): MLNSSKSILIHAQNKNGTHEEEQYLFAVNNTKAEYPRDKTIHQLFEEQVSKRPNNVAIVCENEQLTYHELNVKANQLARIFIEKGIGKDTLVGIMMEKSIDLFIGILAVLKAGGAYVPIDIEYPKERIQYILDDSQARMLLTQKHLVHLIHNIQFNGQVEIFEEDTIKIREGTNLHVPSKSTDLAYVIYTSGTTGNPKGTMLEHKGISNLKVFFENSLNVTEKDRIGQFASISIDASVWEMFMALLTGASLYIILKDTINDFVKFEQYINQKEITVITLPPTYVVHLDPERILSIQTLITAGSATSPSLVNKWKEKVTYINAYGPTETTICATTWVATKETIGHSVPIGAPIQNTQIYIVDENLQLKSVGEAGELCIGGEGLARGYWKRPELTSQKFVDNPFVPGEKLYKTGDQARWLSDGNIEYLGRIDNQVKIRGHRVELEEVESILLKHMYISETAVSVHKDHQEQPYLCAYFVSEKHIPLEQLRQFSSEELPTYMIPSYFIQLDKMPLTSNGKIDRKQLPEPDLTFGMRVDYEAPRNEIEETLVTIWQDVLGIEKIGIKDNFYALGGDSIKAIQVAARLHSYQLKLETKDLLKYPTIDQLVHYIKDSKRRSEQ
T2 sequence (P0C061 1-617 F234I/A301E): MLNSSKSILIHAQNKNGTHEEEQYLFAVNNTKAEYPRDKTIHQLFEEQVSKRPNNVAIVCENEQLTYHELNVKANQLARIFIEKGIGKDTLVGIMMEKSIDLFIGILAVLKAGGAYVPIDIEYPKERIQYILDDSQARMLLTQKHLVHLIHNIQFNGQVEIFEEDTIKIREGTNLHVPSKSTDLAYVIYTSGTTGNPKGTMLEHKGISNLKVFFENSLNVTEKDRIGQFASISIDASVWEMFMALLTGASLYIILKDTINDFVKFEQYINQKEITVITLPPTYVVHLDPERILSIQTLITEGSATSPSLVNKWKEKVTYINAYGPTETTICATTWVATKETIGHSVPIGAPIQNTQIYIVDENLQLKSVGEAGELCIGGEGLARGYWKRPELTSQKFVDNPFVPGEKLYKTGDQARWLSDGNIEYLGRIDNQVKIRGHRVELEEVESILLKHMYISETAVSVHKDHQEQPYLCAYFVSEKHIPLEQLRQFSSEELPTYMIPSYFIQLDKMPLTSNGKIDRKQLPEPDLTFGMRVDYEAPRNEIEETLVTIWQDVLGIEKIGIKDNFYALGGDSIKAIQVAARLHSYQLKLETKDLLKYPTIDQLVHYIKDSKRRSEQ

N[C@@H](Cc1ccccc1)C(=O)O [Phe, phenylalanine]
EC50 (GECFINDER-Phe3.1): 7.51 µM | EC50 (GECFINDER-Phe3.2): 67.6 µM
